Measured values reported in the supplement of paper PMC10307832.

What was measured:
Test in all cases: relative viability (nuclei count vs DMSO), 5 days (fraction); higher = more cells survive
[1] = compound: C[C@]12O[C@H](C[C@]1(O)CO)n1c3ccccc3c3c4c(c5c6ccccc6n2c5c31)CNC4=O [Lestaurtinib] + COc1cc2c(Oc3ccc(NC(=O)C4(C(=O)Nc5ccc(F)cc5)CC4)cc3F)ccnc2cc1OCCCN1CCOCC1 [Foretinib] (partner 0.25 µM)
Procedure, shortened: (§1)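 One day after seeding in 1536-well plates, lung cancer cell lines were dosed by pin tool. Dosing was either single-drug or a fixed anchor-drug dose plus five library-drug doses (not always all listed) in √10 steps. After 5 days, nuclei were stained in one fix-and-stain step and counted on 4× images, and relative viability is the nuclei count of treated wells over that of vehicle wells, given as the median of duplicate plates.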

[2] = compound: C[C@]12O[C@H](C[C@]1(O)CO)n1c3ccccc3c3c4c(c5c6ccccc6n2c5c31)CNC4=O [Lestaurtinib] + CS(=O)(=O)N1CCN(Cc2cc3nc(-c4cccc5[nH]ncc45)nc(N4CCOCC4)c3s2)CC1 [Pictilisib] (partner 1 µM)
Procedure, shortened: as §1

[3] = compound: C1=CC(=CC=C1C2=CC(=C(S2)NC(=O)N)C(=O)N)F [TPCA-1] + COc1cccc2cc(-c3nc([C@H]4CC[C@H](C(=O)O)CC4)n4ncnc(N)c34)[nH]c12 [OSI-027] (partner 0.5 µM)
Procedure, shortened: as §1

[4] = compound: C[C@]12O[C@H](C[C@]1(O)CO)n1c3ccccc3c3c4c(c5c6ccccc6n2c5c31)CNC4=O [Lestaurtinib] + CC(=O)c1c(C)c2cnc(Nc3ccc(N4CCNCC4)cn3)nc2n(C2CCCC2)c1=O [Palbociclib] (partner 0.5 µM)
Procedure, shortened: as §1

| Cell Line | relative viability ([1]; first compound 0.005 µM) | relative viability ([1]; first compound 0.01581 µM) | relative viability ([1]; first compound 0.05 µM) | relative viability ([1]; first compound 0.1581 µM) | relative viability ([1]; first compound 0.5 µM) | relative viability ([2]; first compound 0.005 µM) | relative viability ([2]; first compound 0.01581 µM) | relative viability ([2]; first compound 0.05 µM) | relative viability ([2]; first compound 0.1581 µM) | relative viability ([2]; first compound 0.5 µM) | relative viability ([3]; first compound 0.04 µM) | relative viability ([3]; first compound 0.1265 µM) | relative viability ([3]; first compound 0.4 µM) | relative viability ([3]; first compound 1.265 µM) | relative viability ([3]; first compound 4 µM) | relative viability ([4]; first compound 0.005 µM) | relative viability ([4]; first compound 0.01581 µM) | relative viability ([4]; first compound 0.05 µM) | relative viability ([4]; first compound 0.1581 µM) | relative viability ([4]; first compound 0.5 µM) |
| --- | --- | --- | --- | --- | --- | --- | --- | --- | --- | --- | --- | --- | --- | --- | --- | --- | --- | --- | --- | --- |
| ChaGo-K-1 | 0.946 | 1.04 | 0.828 | 0.788 | 0.373 | 0.726 | 1.15 | 0.663 | 0.421 | 0.356 | 0.652 | 0.518 | 0.617 | 0.577 | 0.276 | 0.977 | 0.89 | 0.77 | 0.779 | 0.671 |
| EBC-1 | 0.109 | 0.105 | 0.114 | 0.11 | 0.112 | 0.427 | 0.402 | 0.35 | 0.452 | 0.21 | – | – | – | – | – | – | – | – | – | – |
| EKVX | 0.681 | 0.752 | 0.75 | 0.925 | 0.656 | 0.518 | 0.461 | 0.442 | 0.571 | 0.387 | 0.806 | 0.671 | 0.771 | 0.626 | 0.586 | 0.346 | – | 0.355 | 0.421 | 0.426 |
| EMC-BAC-2 | 0.908 | 0.737 | 0.78 | 0.382 | 0.29 | 0.58 | 0.504 | 0.427 | 0.32 | 0.239 | 0.383 | 0.38 | 0.45 | 0.221 | 0.265 | 0.505 | 0.51 | 0.456 | 0.353 | 0.305 |
| EPLC-272H | 0.542 | 0.538 | 0.282 | 0.325 | 0.126 | 0.292 | 0.318 | 0.212 | 0.286 | 0.305 | 0.346 | 0.236 | 0.305 | 0.277 | 0.288 | 0.359 | 0.317 | 0.269 | 0.3 | 0.353 |
| H3255 | 0.981 | 0.888 | 0.898 | 0.703 | 0.419 | 0.5 | 0.393 | 0.388 | 0.277 | 0.164 | 0.674 | 0.578 | 0.592 | 0.463 | 0.483 | 0.301 | 0.349 | 0.324 | 0.337 | 0.249 |
| HARA | 0.958 | 0.856 | 0.838 | 0.827 | 0.126 | 0.356 | 0.451 | 0.334 | 0.187 | 0.179 | 0.811 | 0.454 | 0.627 | 0.355 | 0.131 | 0.233 | 0.32 | 0.278 | 0.234 | 0.243 |
| HCC-15 | 1.11 | 1.13 | 0.989 | 0.744 | 0.139 | 0.854 | 0.872 | 0.609 | 0.477 | 0.176 | 0.831 | 0.492 | 0.677 | 0.504 | 0.262 | 0.751 | 0.779 | 0.68 | 0.687 | 0.187 |
| HCC-44 | – | – | – | – | – | 0.528 | 0.758 | 0.466 | 0.569 | 0.448 | 0.64 | 0.462 | 0.503 | – | 0.495 | 0.958 | 1 | 1.04 | 1.1 | 0.732 |
